Data reported in PubChem BioAssay AID248 (DTP/NCI, 2004).
Where “and” joins values, the source holds several entries; their conditions need not be identical. Identical values can stand only once. Toxic doses and inconclusive results are not listed. Rule as the data show it: active = T/C of 150% or more; inactive = T/C below 125%.

Tested on: L1210 leukemia ip in BDF1 mice, survival T/C
Experiment: NCI In Vivo Anticancer Drug Screen. Data for tumor model L1210 Leukemia (intraperitoneal) in B6D2F1 (BDF1) mice
Conditions: higher = longer survival
How it was run: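 Tumor cells were implanted, animals were treated, and survival was followed. The result divides the treated measurement by the vehicle-control measurement.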

[1] = endpoint: mean survival time, dose: 100.0 mg/kg/injection, schedule: Q01DX009 (ip), vehicle: Klucel (hydroxypropylcellulose) (HPC)
[2] = endpoint: mean survival time, dose: 100.0 mg/kg/injection, schedule: Q04DX003 (ip), vehicle: saline with Tween-80
[3] = endpoint: mean survival time, dose: 200.0 mg/kg/injection, schedule: Q04DX003 (ip), vehicle: saline with Tween-80
[4] = endpoint: mean survival time, dose: 400.0 mg/kg/injection, schedule: Q04DX003 (ip), vehicle: saline with Tween-80
[5] = endpoint: mean survival time, dose: 100.0 mg/kg/injection, schedule: Q04DX003 (ip), vehicle: saline
[6] = endpoint: mean survival time, dose: 200.0 mg/kg/injection, schedule: Q04DX003 (ip), vehicle: saline
[7] = endpoint: mean survival time, dose: 400.0 mg/kg/injection, schedule: Q04DX003 (ip), vehicle: saline

Measured: T/C

CCCCCCC(=O)O[C@H]1CC[C@H]2[C@@H]3CCC4=CC(=O)CC[C@]4(C)[C@H]3CC[C@]12C
inactive: endpoint: median survival time, dose: 2.0 mg/kg/injection, schedule: Q04DX024 (ip), vehicle: other 94 % of control | endpoint: median survival time, dose: 4.0 mg/kg/injection, schedule: Q01DX016 (ip), vehicle: other 92 % of control | endpoint: median survival time, dose: 4.0 mg/kg/injection, schedule: Q04DX024 (ip), vehicle: other 94 % of control | endpoint: median survival time, dose: 8.0 mg/kg/injection, schedule: Q01DX008 (ip), vehicle: other 95 % of control | endpoint: median survival time, dose: 8.0 mg/kg/injection, schedule: Q01DX009 (ip), vehicle: other 98 % of control | endpoint: median survival time, dose: 8.0 mg/kg/injection, schedule: Q01DX016 (ip), vehicle: other 92 % of control | endpoint: median survival time, dose: 8.0 mg/kg/injection, schedule: Q04DX024 (ip), vehicle: other 91 % of control | endpoint: median survival time, dose: 16.0 mg/kg/injection, schedule: Q01DX008 (ip), vehicle: other 95 % of control | endpoint: median survival time, dose: 16.0 mg/kg/injection, schedule: Q01DX009 (ip), vehicle: other 97 % of control | endpoint: median survival time, dose: 16.0 mg/kg/injection, schedule: Q01DX016 (ip), vehicle: other 90 % of control | endpoint: median survival time, dose: 16.0 mg/kg/injection, schedule: Q04DX003 (ip), vehicle: other 98 % of control | endpoint: median survival time, dose: 16.0 mg/kg/injection, schedule: Q04DX024 (ip), vehicle: other 94 % of control | endpoint: median survival time, dose: 32.0 mg/kg/injection, schedule: Q01DX008 (ip), vehicle: other 112 % of control | endpoint: median survival time, dose: 32.0 mg/kg/injection, schedule: Q01DX009 (ip), vehicle: other 111 % of control | endpoint: median survival time, dose: 32.0 mg/kg/injection, schedule: Q01DX016 (ip), vehicle: other 95 % of control | endpoint: median survival time, dose: 32.0 mg/kg/injection, schedule: Q04DX003 (ip), vehicle: other 100 % of control | endpoint: median survival time, dose: 32.0 mg/kg/injection, schedule: Q04DX024 (ip), vehicle: other 92 % of control | endpoint: median survival time, dose: 32.0 mg/kg/injection, schedule: Q08DX002 (ip), vehicle: other 102 % of control | endpoint: median survival time, dose: 64.0 mg/kg/injection, schedule: Q01DX001 (ip), vehicle: other 98 % of control | endpoint: median survival time, dose: 64.0 mg/kg/injection, schedule: Q01DX008 (ip), vehicle: other 91 % of control | endpoint: median survival time, dose: 64.0 mg/kg/injection, schedule: Q01DX009 (ip), vehicle: other 92 % of control | endpoint: median survival time, dose: 64.0 mg/kg/injection, schedule: Q01DX016 (ip), vehicle: other 89 % of control | endpoint: median survival time, dose: 64.0 mg/kg/injection, schedule: Q04DX003 (ip), vehicle: other 107 % of control | endpoint: median survival time, dose: 64.0 mg/kg/injection, schedule: Q08DX002 (ip), vehicle: other 98 % of control | endpoint: median survival time, dose: 128.0 mg/kg/injection, schedule: Q01DX001 (ip), vehicle: other 104 % of control | endpoint: median survival time, dose: 128.0 mg/kg/injection, schedule: Q01DX009 (ip), vehicle: other 97 % of control | endpoint: median survival time, dose: 128.0 mg/kg/injection, schedule: Q04DX003 (ip), vehicle: other 101 % of control | endpoint: median survival time, dose: 128.0 mg/kg/injection, schedule: Q08DX002 (ip), vehicle: other 101 % of control | endpoint: median survival time, dose: 256.0 mg/kg/injection, schedule: Q01DX001 (ip), vehicle: other 122 % of control | endpoint: median survival time, dose: 256.0 mg/kg/injection, schedule: Q01DX009 (ip), vehicle: other 106 % of control | endpoint: median survival time, dose: 256.0 mg/kg/injection, schedule: Q04DX003 (ip), vehicle: other 102 % of control | endpoint: median survival time, dose: 256.0 mg/kg/injection, schedule: Q08DX002 (ip), vehicle: other 104 % of control | endpoint: median survival time, dose: 512.0 mg/kg/injection, schedule: Q01DX001 (ip), vehicle: other 101 % of control | endpoint: median survival time, dose: 512.0 mg/kg/injection, schedule: Q08DX002 (ip), vehicle: other 106 % of control

CC(C)C(=O)OCC1CC2C=CC1C2 (stereo unspecified)
inactive: endpoint: mean survival time, dose: 222.0 mg/kg/injection, schedule: Q01DX Z (ip), vehicle: saline 96 % of control | endpoint: mean survival time, dose: 333.0 mg/kg/injection, schedule: Q01DX Z (ip), vehicle: saline 104 % of control | endpoint: mean survival time, dose: 500.0 mg/kg/injection, schedule: Q01DX Z (ip), vehicle: saline 98 % of control

CCCCCCCCOC(=O)Nc1ccccc1
inactive: endpoint: mean survival time, dose: 25.0 mg/kg/injection, schedule: Q01DX009 (ip), vehicle: Klucel (hydroxypropylcellulose) (HPC) 100 % of control | endpoint: mean survival time, dose: 50.0 mg/kg/injection, schedule: Q01DX009 (ip), vehicle: Klucel (hydroxypropylcellulose) (HPC) 94 % of control | [1] 100 % of control

NC(=O)C1=CN(Cc2ccccc2)C=CC1
inactive: [2] 100 % of control | [3] 106 % of control | [4] 94 % of control

ClC(Cl)(Cl)C1OCOC(C(Cl)(Cl)Cl)O1 (stereo unspecified)
inactive: [2] 98 % of control | [3] 96 % of control | [4] 101 % of control

CCOC(=O)N1c2ccccc2C=CC1C#N (stereo unspecified)
inactive: endpoint: mean survival time, dose: 44.0 mg/kg/injection, schedule: Q04DX003 (ip), vehicle: saline 108 % of control | endpoint: mean survival time, dose: 66.0 mg/kg/injection, schedule: Q04DX003 (ip), vehicle: saline 105 % of control | endpoint: mean survival time, dose: 100.0 mg/kg/injection, schedule: Q01DX009 (ip), vehicle: saline 93 % of control | [5] 94 % of control and 96 % of control | endpoint: mean survival time, dose: 200.0 mg/kg/injection, schedule: Q01DX009 (ip), vehicle: saline 100 % of control | [6] 101 % of control and 102 % of control | endpoint: mean survival time, dose: 400.0 mg/kg/injection, schedule: Q01DX009 (ip), vehicle: saline 95 % of control | [7] 102 % of control

CC1=C(CCCO)/C(=N/Nc2ccc([N+](=O)[O-])cc2[N+](=O)[O-])CCC1
inactive: endpoint: mean survival time, dose: 25.0 mg/kg/injection, schedule: Q04DX002 (ip), vehicle: saline with Tween-80 97 % of control | endpoint: mean survival time, dose: 100.0 mg/kg/injection, schedule: Q01DX001 (ip), vehicle: saline with Tween-80 105 % of control | endpoint: mean survival time, dose: 200.0 mg/kg/injection, schedule: Q01DX001 (ip), vehicle: saline with Tween-80 87 % of control | endpoint: mean survival time, dose: 400.0 mg/kg/injection, schedule: Q01DX001 (ip), vehicle: saline with Tween-80 92 % of control

CN1CCC2(C1)C1CC3CC(C1)CC2C3 (stereo unspecified)
inactive: endpoint: mean survival time, dose: 75.0 mg/kg/injection, schedule: Q01DX001 (ip), vehicle: saline 97 % of control

CCC(C(=O)O)C(O)(CC(=O)O)C(=O)O (stereo unspecified)
inactive: [5] 98 % of control | [6] 101 % of control | [7] 95 % of control

COC(=O)C1C2CCCCC2(C)CC12SCCS2 (stereo unspecified)
inactive: endpoint: mean survival time, dose: 100.0 mg/kg/injection, schedule: Q04DX002 (ip), vehicle: Klucel (hydroxypropylcellulose) (HPC) 107 % of control | endpoint: mean survival time, dose: 200.0 mg/kg/injection, schedule: Q04DX002 (ip), vehicle: Klucel (hydroxypropylcellulose) (HPC) 107 % of control | endpoint: mean survival time, dose: 400.0 mg/kg/injection, schedule: Q04DX002 (ip), vehicle: Klucel (hydroxypropylcellulose) (HPC) 93 % of control

C=CC1C(C(=O)Nc2ccccc2)CN1C (stereo unspecified)
inactive: [2] 107 % of control | [3] 107 % of control | [4] 116 % of control

COc1ccc(CC(N)C(=O)N2CC(n3cnc4c(N(C)C)ncnc43)CC2CO)cc1 (stereo unspecified)
inactive: endpoint: mean survival time, dose: 25.0 mg/kg/injection, schedule: Q04DX002 (ip), vehicle: saline 98 % of control | endpoint: mean survival time, dose: 50.0 mg/kg/injection, schedule: Q04DX002 (ip), vehicle: saline 119 % of control | endpoint: mean survival time, dose: 100.0 mg/kg/injection, schedule: Q04DX002 (ip), vehicle: saline 105 % of control

CCCCOC(OCCCC)c1ccccc1
inactive: endpoint: mean survival time, dose: 50.0 mg/kg/injection, schedule: Q01DX001 (ip), vehicle: carboxymethylcellulose (CMC) 95 % of control | endpoint: mean survival time, dose: 100.0 mg/kg/injection, schedule: Q01DX001 (ip), vehicle: carboxymethylcellulose (CMC) 88 % of control

CN(C)c1ccc(N=Nc2cccc([N+](=O)[O-])c2)cc1
inactive: [1] 105 % of control | endpoint: mean survival time, dose: 200.0 mg/kg/injection, schedule: Q01DX009 (ip), vehicle: Klucel (hydroxypropylcellulose) (HPC) 97 % of control | endpoint: mean survival time, dose: 400.0 mg/kg/injection, schedule: Q01DX009 (ip), vehicle: Klucel (hydroxypropylcellulose) (HPC) 100 % of control
